Assay results taken from the supplement of paper PMC10307832.

Key:
Assay in all cases: relative viability (nuclei count vs DMSO), 5 days (fraction); higher = more cells survive
Crizotinib + Luminespib = compound: C[C@@H](Oc1cc(-c2cnn(C3CCNCC3)c2)cnc1N)c1c(Cl)ccc(F)c1Cl [Crizotinib] + CCNC(=O)c1noc(-c2cc(C(C)C)c(O)cc2O)c1-c1ccc(CN2CCOCC2)cc1 [Luminespib] (partner 0.01 µM)
How it was run: (§1)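 One day after seeding in 1536-well plates, lung cancer cell lines were dosed by pin tool. Dosing was either single-drug or a fixed anchor-drug dose plus five library-drug doses (not always all listed) in √10 steps. After 5 days, nuclei were stained in one fix-and-stain step and counted on 4× images, and relative viability is the nuclei count of treated wells over that of vehicle wells, given as the median of duplicate plates.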

Crizotinib + Alpelisib = compound: C[C@@H](Oc1cc(-c2cnn(C3CCNCC3)c2)cnc1N)c1c(Cl)ccc(F)c1Cl [Crizotinib] + Cc1nc(NC(=O)N2CCC[C@H]2C(N)=O)sc1-c1ccnc(C(C)(C)C(F)(F)F)c1 [Alpelisib] (partner 2 µM)
How it was run: as §1

Crizotinib + Dasatinib = compound: C[C@@H](Oc1cc(-c2cnn(C3CCNCC3)c2)cnc1N)c1c(Cl)ccc(F)c1Cl [Crizotinib] + Cc1nc(Nc2ncc(C(=O)Nc3c(C)cccc3Cl)s2)cc(N2CCN(CCO)CC2)n1 [Dasatinib] (partner 0.075 µM)
How it was run: as §1

Crizotinib + Pemetrexed = compound: C[C@@H](Oc1cc(-c2cnn(C3CCNCC3)c2)cnc1N)c1c(Cl)ccc(F)c1Cl [Crizotinib] + Nc1nc2[nH]cc(CCc3ccc(C(=O)N[C@@H](CCC(=O)O)C(=O)O)cc3)c2c(=O)[nH]1 [Pemetrexed] (partner 0.2 µM)
How it was run: as §1

| Cell Line | relative viability (Crizotinib + Luminespib; first compound 0.01 µM) | relative viability (Crizotinib + Luminespib; first compound 0.03162 µM) | relative viability (Crizotinib + Luminespib; first compound 0.1 µM) | relative viability (Crizotinib + Luminespib; first compound 1 µM) | relative viability (Crizotinib + Alpelisib; first compound 0.01 µM) | relative viability (Crizotinib + Alpelisib; first compound 0.03162 µM) | relative viability (Crizotinib + Alpelisib; first compound 0.1 µM) | relative viability (Crizotinib + Alpelisib; first compound 1 µM) | relative viability (Crizotinib + Dasatinib; first compound 0.01 µM) | relative viability (Crizotinib + Dasatinib; first compound 0.03162 µM) | relative viability (Crizotinib + Dasatinib; first compound 0.1 µM) | relative viability (Crizotinib + Dasatinib; first compound 1 µM) | relative viability (Crizotinib + Pemetrexed; first compound 0.01 µM) | relative viability (Crizotinib + Pemetrexed; first compound 0.03162 µM) | relative viability (Crizotinib + Pemetrexed; first compound 0.1 µM) | relative viability (Crizotinib + Pemetrexed; first compound 0.3162 µM) | relative viability (Crizotinib + Pemetrexed; first compound 1 µM) | relative viability (Crizotinib + Luminespib; first compound 0.3162 µM) | relative viability (Crizotinib + Alpelisib; first compound 0.3162 µM) | relative viability (Crizotinib + Dasatinib; first compound 0.3162 µM) |
| --- | --- | --- | --- | --- | --- | --- | --- | --- | --- | --- | --- | --- | --- | --- | --- | --- | --- | --- | --- | --- |
| NCI-H1915 | 0.775 | 0.817 | 0.721 | 0.862 | 1.08 | 1.08 | 1.14 | 1.09 | 0.307 | 0.338 | 0.315 | 0.317 | 0.455 | 0.431 | 0.506 | 0.455 | 0.482 |  |  |  |
| NCI-H1944 | 0.671 | 0.648 | 0.646 | 0.777 | 0.787 |  | 0.804 | 0.861 | 0.193 | 0.22 | 0.207 | 0.203 | 0.499 | 0.614 | 0.621 | 0.605 | 0.652 | 0.872 | 0.808 | 0.179 |
| NCI-H1975 | 0.144 | 0.148 | 0.167 | 0.178 | 0.682 | 0.683 | 0.673 | 0.68 | 0.347 | 0.381 | 0.349 | 0.43 | 0.296 | 0.3 | 0.287 | 0.301 | 0.291 | 0.223 | 0.689 | 0.387 |
| NCI-H1993 | 0.905 | 0.889 |  |  | 0.669 | 0.625 | 0.652 | 0.737 |  | 0.483 | 0.488 | 0.511 | 0.57 | 0.632 | 0.503 | 0.528 | 0.47 | 0.852 | 0.715 | 0.49 |
| NCI-H2009 | 0.994 | 1.02 | 0.988 | 1.08 | 1.16 | 1.16 |  | 1.09 | 0.265 | 0.296 | 0.253 | 0.275 | 1.02 | 1.05 | 0.974 | 0.957 | 0.989 | 1.01 | 1.12 | 0.249 |
| NCI-H2023 | 0.714 | 0.754 | 0.61 | 0.592 | 0.523 | 0.611 | 0.637 | 0.499 | 0.532 | 0.537 | 0.449 | 0.389 | 0.149 | 0.226 | 0.172 | 0.189 | 0.209 | 0.58 | 0.503 | 0.258 |
| NCI-H2085 | 0.551 | 0.394 | 0.431 | 0.428 | 0.954 | 1.02 |  | 0.954 | 0.209 | 0.232 | 0.228 | 0.28 | 0.808 | 0.978 | 0.856 | 0.749 | 0.904 |  | 1.05 | 0.282 |
| NCI-H2087 | 0.18 | 0.181 | 0.168 | 0.134 | 1.02 |  |  | 1.21 | 0.696 | 0.861 | 0.797 | 0.803 | 0.725 | 0.724 | 0.553 | 0.702 | 0.723 |  |  |  |
| NCI-H2126 | 0.717 | 0.886 |  | 0.916 | 0.719 | 0.782 | 0.714 | 0.79 | 0.484 | 0.646 | 0.569 | 0.545 | 0.616 |  | 0.68 | 0.659 | 0.724 | 0.861 | 0.708 | 0.557 |
